In patent US20100021895A1, “Vectors for Inducing Homozygous Mutations and Methods of Using Same” (priority 2006, published 2010):

Tested on: HSV thymidine kinase (TK) gene in cells containing an entrapment mutation in the Hesx1 gene
Assay: TK gene loss, selection in gancyclovir
Format: cell-based, mouse
Settings: Table 2
Procedure: Two types of experiments were performed to assess whether frequencies of LOH were transiently or stably elevated following carcinogen exposure. First, cells were treated with MNU and HU as before and the percentages of cells having undergone LOH were determined by selection in 2.0 mg/ml G418 at various times thereafter. Over 90% of the total LOH was induced within 24 hours of MNU and HU exposure, and only minimal additional LOH occurred subsequently (FIG. 14). Second, it was asked whether LOH frequencies at a second locus were elevated in cells having undergone LOH at the entrapment locus. For this, a Herpes Simplex Virus thymidine kinase (TK) gene was introduced into cells containing an entrapment allele of the Hesx1 gene and frequencies of TK gene loss were measured by selection in gangcyclovir. These studies utilized the cell line containing the TK gene (C8TK1) and derivatives of C8TK1 that had undergone LOH at the entrapment locus either spontaneously (C8TK1sN) or after treatment with either MNU (C8TKmN) or HU (C8TK1hN). […] Moreover, the stability of the TK gene following carcinogen treatment was largely unaffected by prior selection for LOH involving the entrapment locus. Similar results were also obtained with a second TK-containing line (C8TK2, Table 4). Together these experiments indicate that carcinogen-induced LOH results from an acute response rather than from a stably altered cellular phenotype.
Serially diluted cells were plated onto 150 mm plates containing drug-free media and allowed to attach overnight. Unattached cells were removed and media containing the indicated concentrations of methyl-nitrosourea, hydroxyurea, ethidium bromide, doxorubicin, methotrexate, diepoxybutane, or mitomycin C was put onto cells for 4 hours (or cells were exposed to ultraviolet light in the absence of media and allowed to recover in drug-free media for 4 hours). Cells were then rinsed twice with drug-free media and selection media containing 0.0, 0.3, or 2.0 mg/ml G418 was put onto cells. After 12 days of selection, the number of colonies surviving was counted and the frequency of colony formation was determined by dividing the number of colonies obtained from 2.0 mg/ml G418 selection to that obtained from parallel experiments with 0.3 mg/ml G418 selection. TK gene loss was assessed following selection in media containing 2 μg/ml gancyclovir.
Table 2. […] The HSV thymidine kinase (TK) gene was introduced into cells containing an entrapment mutation in the Hesx1 gene. A TK expressing (TK^+) clone (C8TK1) was used to select for cells that had undergone LOH at the entrapment locus (EL) spontaneously (C8TK1sN) or following treatment with HU (C8TK1hN) or MNU (C8TK1mN). The frequencies of TK gene loss were compared in cells with and without prior selection for LOH at the entrapment locus and the differences were expressed as the indicated ratios.
Table 4. Carcinogen-induced LOH does generate genetically unstable cells. The HSV thymidine kinase (TK) gene was introduced into cells containing an entrapment mutation in the Hesx1 gene. A TK expressing (TK+) clone (C8TK2) was used to select for cells that had undergone LOH at the entrapment locus (EL) spontaneously (C8TK2sN) or following treatment with HU (C8TK2hN) or MNU (C8TK2mN). The frequencies of spontaneous TK gene loss (Treatment=none) or TK gene loss following treatment with HU or MNU were compared in cells with (EL^−/−) and without prior selection for LOH (EL^+/+) at the entrapment locus and the differences were expressed as the indicated ratios.

NC(=O)NO [HU, hydroxyurea]
Ratio of Freq. TK loss (C8TK1sN and C8TK1hN, Treatment HU): 1.7 | Freq. TK loss (clone C8TK1hN (EL LOH induced by HU), Treatment HU): 3.9 × 10^−4 | Freq. TK loss (clone C8TK1hN (EL LOH induced by HU, TK+ EL−/−), Treatment none): 8.4 × 10^−5 | Freq. TK loss (clone C8TK1sN (Spont. EL LOH), Treatment HU): 2.3 × 10^−4

CN(N=O)C(N)=O [MNU, methyl-nitrosourea]
Freq. TK loss (clone C8TK1mN (EL LOH induced by MNU), Treatment MNU): 4.7 × 10^−4 | Freq. TK loss (clone C8TK1mN (EL LOH induced by MNU, TK+ EL−/−), Treatment none): 1.4 × 10^−5 | Freq. TK loss (clone C8TK1sN (Spont. EL LOH), Treatment MNU): 2.6 × 10^−4
